Source: patent publication US20090181948A1, “DIAMINE DERIVATIVE” (KYOWA HAKKO KOGYO CO., LTD., priority 2005, published 2009)

Key:
histamine H3 receptor [1] = molecular target: T1, histamine H3 receptor (Rattus norvegicus, UniProt Q9QYN8); assay: Histamine H3 receptor binding assay ([3H]-Nα-methylhistamine binding to rat striatum homogenate); details: 1 μmol/L test compound; [3H]-Nα-methylhistamine 1 nmol/L; striata of Sprague-Dawley male rats, 25° C., 1 hour; read-out: Inhibition ratio of [3H]-Nα-methylhistamine binding
T1 construct: from tissue; host or cells: rat striatum (Sprague-Dawley, male, 6 weeks), membrane homogenate
Procedure, shortened: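 Rat striatum membranes (20 μg protein) incubated with [3H]-Nα-methylhistamine 1 nmol/L in 50 mmol/L Tris/HCl pH 7.4, 5 mmol/L EDTA, 1 hour at 25° C; bound ligand by filtration and scintillation counting. Nonspecific binding defined with 10 μmol/L thioperamide; % inhibition reported at 1 μmol/L compound.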

histamine H3 receptor [2] = molecular target: T1, histamine H3 receptor; assay: Inhibitory effect on histamine release suppressive action of histamine H3 receptor agonist (Nα-methylhistamine) in rat forebrain synaptosomes; type: biochemical; details: 1 μmol/L test compound and 1 μmol/L Nα-methylhistamine, potassium 30 mmol/L stimulation, read-out: Inhibition ratio of the [3H]-histamine release suppressive action of Nα-methylhistamine
Description: To the forebrains of Sprague-Dawley male rats (6 to 8 weeks of age), a 30-fold volume of a 0.32 mol/L aqueous sucrose solution was added and the forebrains were homogenized. The resulting homogenate was centrifuged (1,000×g, 4° C., 10 min), and to the obtained supernatant, an equivalent volume of Krebs-Ringer solution [120 mmol/L sodium chloride, 0.8 mmol/L potassium chloride, 2.6 mmol/L calcium chloride, 0.67 mmol/L magnesium sulfate, 1.2 mmol/L potassium dihydrogen phosphate, 27.5 mmol/L sodium bicarbonate, 10 mmol/L glucose (pH 7.3)] was added, and the resulting mixture was centrifuged (10,000×g, 4° C., 15 min). To the obtained precipitate, a 15-fold volume of Krebs-Ringer solution was added to suspend the precipitate. Then, the concentration of protein in the resulting tissue homogenate (synaptosomes) was measured and used for a test.
To the synaptosomes (300 μg in terms of protein amount) prepared by the above-described method, a [^3H]-histidine solution [final concentration: […] (740 kBq)/mL]: 6 μl of a 37 MBq/mL (specific activity: […]) solution] was added, and the total volume was adjusted to 300 μL with Krebs-Ringer solution. Then, the resulting mixture was incubated at 37° C. for 30 minutes and centrifuged (10,000×g, 25° C., 3 min). To the resulting precipitate (synaptosomes), 300 μL of Krebs-Ringer solution was added, and the mixture was incubated at 37° C. for 5 minutes and centrifuged (10,000×g, 25° C., 3 min). This procedure was repeated 5 times, whereby washing of synaptosomes was carried out. The resulting synaptosomes were suspended in 100 μL of Krebs-Ringer solution, and the resulting suspension was used for the following procedure.
A test compound and N^α-methylhistamine were separately dissolved in Krebs-Ringer solution to give a concentration of 20 μmol/L (the resulting mixtures were referred to as a test compound solution and a N^α-methylhistamine solution, respectively). To 100 μL of the above-described suspended synaptosomes (300 μg in terms of protein amount), 140 μL of Krebs-Ringer solution was added. Then, 30 μL of the test compound solution and 30 μL of the N^α-methylhistamine solution were added thereto, and the resulting mixture was incubated at 37° C. for 2 minutes. Then, an equivalent volume of a stimulating solution [64 mmol/L sodium chloride, 56.8 mmol/L potassium chloride, 2.6 mmol/L calcium chloride, 0.67 mmol/L magnesium sulfate, 1.2 mmol/L potassium dihydrogen phosphate, 27.5 mmol/L sodium bicarbonate, 10 mmol/L glucose (pH 7.3)] (final potassium concentration: 30 mmol/L) was added, and the resulting mixture was incubated at 37° C. for 2 minutes to release [^3H]-histamine. The reaction mixture was centrifuged (10,000×g, 25° C., 3 min), and the obtained supernatant was passed through Amberlite CG-50 column (250 μL), and the non-adsorbed fractions were discarded. Then, 2 mL of 50 mmol/L [[…]]/hydrochloric acid (HCl) (pH 7.5) (Tris) was passed through the column 3 times, and 2 mL of distilled water, and 1.5 mL of a 0.2 mol/L aqueous sodium hydroxide solution were passed through the column in this order, and the eluted fractions were discarded. Then, 2 mL of a 0.2 mol/L aqueous sodium hydroxide solution was passed through the column, and the eluted fraction was recovered in a scintillation vial. Then, 8 mL of Ultimagold (Perkin Elmer) was added to the recovered eluted solution, and the radioactivity ([^3H]-histamine) was measured using a liquid scintillation counter. The inhibitory action of the test compound on the histamine release suppressive action of N^α-methylhistamine was evaluated by obtaining the inhibition ratio to the histamine release suppressive action in the presence of 1 μmol/L No-methylhistamine and 1 μmol/L of the test compound. The inhibition ratio of the [^3H]-histamine release suppressive action was calculated using the following Equation (2). […]

T1 sequence (Q9QYN8 whole entry): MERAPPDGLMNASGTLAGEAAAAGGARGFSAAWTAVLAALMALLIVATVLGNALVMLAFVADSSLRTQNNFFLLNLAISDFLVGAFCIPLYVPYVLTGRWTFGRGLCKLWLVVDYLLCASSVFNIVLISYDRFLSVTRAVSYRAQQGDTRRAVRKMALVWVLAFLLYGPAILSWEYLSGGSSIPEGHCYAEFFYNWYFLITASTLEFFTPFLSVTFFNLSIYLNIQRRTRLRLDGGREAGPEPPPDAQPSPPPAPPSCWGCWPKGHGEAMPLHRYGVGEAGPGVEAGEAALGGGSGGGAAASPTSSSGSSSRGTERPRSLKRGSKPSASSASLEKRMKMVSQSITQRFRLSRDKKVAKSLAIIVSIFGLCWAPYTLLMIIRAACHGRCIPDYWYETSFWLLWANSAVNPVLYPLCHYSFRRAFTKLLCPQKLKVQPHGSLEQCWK

N#CC(C#N)=C1N(CCCN2CCOCC2)CCN1C1CCN(C2CC2)CC1 [Compound 235, [1-(1-Cyclopropylpiperidin-4-yl)-3-(3-morpholinopropyl)imidazolidin-2-ylidene]malononitrile]
inhibition at 1 µM (histamine H3 receptor [1]): ≥ 80% | inhibition at 1 µM (histamine H3 receptor [2]): ≥ 70% | melting point: 104 to 106 °C
